Measurements taken from patent US8741897B2, “Glucocorticoid mimetics, methods of making them, pharmaceutical compositions and uses thereof” (Boehringer Ingelheim Pharmaceuticals Inc., priority 2003, dated 2014).

What was measured:
[1] = biological target: T1, human glucocorticoid receptor (GR) complex (Homo sapiens, UniProt P04150); experiment: Glucocorticoid receptor competitive binding assay (fluorescence polarization, TAMRA-labeled dexamethasone probe); conditions: compounds of Formula (IA)
T1 construct: made in house; host or cells: insect expression system (baculovirus lysate)
T1 sequence (P04150 1-777): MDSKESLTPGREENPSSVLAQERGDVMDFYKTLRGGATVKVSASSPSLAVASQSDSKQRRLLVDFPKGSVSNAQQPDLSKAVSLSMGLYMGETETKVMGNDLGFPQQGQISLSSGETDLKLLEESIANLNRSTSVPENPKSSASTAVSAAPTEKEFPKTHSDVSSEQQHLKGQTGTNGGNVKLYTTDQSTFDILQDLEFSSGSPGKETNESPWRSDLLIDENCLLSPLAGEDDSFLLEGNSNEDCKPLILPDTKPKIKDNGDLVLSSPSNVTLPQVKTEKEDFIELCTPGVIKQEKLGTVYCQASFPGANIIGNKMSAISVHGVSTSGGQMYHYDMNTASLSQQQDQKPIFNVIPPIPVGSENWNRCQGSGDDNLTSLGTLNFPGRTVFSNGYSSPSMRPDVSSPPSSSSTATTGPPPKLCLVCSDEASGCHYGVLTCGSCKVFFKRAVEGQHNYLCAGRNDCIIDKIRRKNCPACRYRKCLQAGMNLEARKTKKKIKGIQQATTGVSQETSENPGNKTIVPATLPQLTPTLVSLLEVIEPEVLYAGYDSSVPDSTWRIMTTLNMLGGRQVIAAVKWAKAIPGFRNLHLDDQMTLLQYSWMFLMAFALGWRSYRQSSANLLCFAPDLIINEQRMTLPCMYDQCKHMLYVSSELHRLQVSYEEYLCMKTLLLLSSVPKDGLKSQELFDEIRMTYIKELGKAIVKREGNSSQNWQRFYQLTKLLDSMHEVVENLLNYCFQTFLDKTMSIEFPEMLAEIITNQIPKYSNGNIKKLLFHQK
Summary of the method: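 Fluorescence-polarization competition against 15 nM TAMRA-dexamethasone (stock added to the mix) for human GR complex from baculovirus lysate diluted 1:170. Buffer: 10 mM TES, 50 mM KCl, 20 mM Na2MoO4, 1.5 mM EDTA, 0.04% CHAPS, 10% glycerol, 1 mM DTT, pH 7.4. IC50 from 4-parameter logistic fit.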

[2] = tested on: glucocorticoid receptor function; experiment: one or more of the above assays (GR binding and glucocorticoid receptor cell assays: aromatase, IL-6, TAT, MMTV-Luc, IL-8, ICAM-Luc); type: cell-based; conditions: assay not specified per compound
[3] = tested on: Human osteosarcoma MG-63 cells; experiment: Inhibition of osteocalcin production from osteoblast cell line MG-63; type: cell-based; conditions: Vitamin D 10 nM, 48 hours
Description: 7. Inhibition of Osteocalcin Production from Osteoblast Cell Line MG-63
The next day, wells are replaced with fresh media. Cells are treated with Vitamin D (Sigma, Cat. No. D1530) to a final concentration of 10 nM, and with the test compounds in concentrations of 10^−6 M to 10^−9 M, in a total volume of 200 μL per well. Samples are done in duplicates. […] Positive control wells receive Vitamin D only, without compounds, and represent maximum (100%) amount of osteocalcin production. Plates are incubated at 37° C. incubator for 48 hours and supernatants are harvested at the end of incubation. Amounts of osteocalcin in the supernatants are determined by the Glype osteocalcin ELISA kit (Zymed, Cat. No. 99-0054) according to manufacture's protocol. Inhibition of osteocalcin by test compounds is expressed in percentage relative to positive controls. IC50 values of the test compounds are derived by non-lineal curve fitting.

activity in the GR binding assay [1]	SMILES	activity as agonists of the glucocorticoid receptor function in one or more of the above assays [2]	inhibit the vitamin D stimulated production of osteocalcin [3]
potent activity	COc1cc2cc(CC(O)(CC(C)(C)c3cc(Cl)cc4c3OCC4)C(F)(F)F)[nH]c2cn1 (stereo not drawn) [4-(5-Chloro-2,3-dihydrobenzofuran-7-yl)-1,1,1-trifluoro-2-(5-methoxy-1H-pyrrolo[2,3-c]pyridin-2-ylmethyl)-4-methylpentan-2-ol]	potent agonists	inhibit
potent activity	Cc1cc(C#N)cc2[nH]c(CC(O)(CC(C)(C)c3cc(S(C)(=O)=O)cc4c3OCC4)C(F)(F)F)cc12 (stereo not drawn) [2-[2-Hydroxy-4-(5-methanesulfonyl-2,3-dihydrobenzofuran-7-yl)-4-methyl-2-trifluoromethylpentyl]-4-methyl-1H-indole-6-carbonitrile]	potent agonists	inhibit
potent activity	Cc1ccc(F)cc1C(C)(C)CC(O)(Cc1cc2cnncc2[nH]1)C(F)(F)F (stereo not drawn) [1,1,1-Trifluoro-4-(5-fluoro-2-methylphenyl)-4-methyl-2-(1H-pyrrolo[2,3-d]pyridazin-2-ylmethyl)pentan-2-ol]	potent agonists	inhibit
potent activity	CC(C)(CC(O)(Cc1cc2cc(C(N)=O)ccc2[nH]1)C(F)(F)F)c1cc(Br)cc2c1OCC2 (stereo not drawn) [2-[4-(5-Bromo-2,3-dihydrobenzofuran-7-yl)-2-hydroxy-4-methyl-2-trifluoromethylpentyl]-1H-indole-5-carboxylic acid amide]	potent agonists	inhibit
potent activity	Cc1cc2[nH]c(CC(O)(CC(C)(C)c3cc(Cl)cc4c3OCC4)C(F)(F)F)cc2c(C)n1 (stereo not drawn) [4-(5-Chloro-2,3-dihydrobenzofuran-7-yl)-2-(4,6-dimethyl-1H-pyrrolo[3,2-c]pyridin-2-ylmethyl)-1,1,1-trifluoro-4-methylpentan-2-ol]	potent agonists	inhibit
potent activity	COc1ccc(F)cc1C(C)(C)CC(O)(Cc1cc2c(C)nc(C#N)cc2[nH]1)C(F)(F)F (stereo not drawn) [2-[4-(5-Fluoro-2-methoxyphenyl)-2-hydroxy-4-methyl-2-trifluoromethylpentyl]-4-methyl-1H-pyrrolo[3,2-c]pyridine-6-carbonitrile]	potent agonists	inhibit
potent activity	CC(C)(CC(O)(Cc1cc2cc(C(=O)NCC#N)ccc2[nH]1)C(F)(F)F)c1cc(Br)cc2c1OCC2 (stereo not drawn) [2-[4-(5-Bromo-2,3-dihydrobenzofuran-7-yl)-2-hydroxy-4-methyl-2-trifluoromethylpentyl]-1H-indole-5-carboxylic acid cyanomethylamide]	potent agonists	inhibit
